Laboratory results from patent publication US20210122730A1, “GLUCOCORTICOID RECEPTOR MODULATORS” (ORIC Pharmaceuticals, Inc., priority 2017, published 2021).

What was measured:
PR = biological target: T1, PR (Homo sapiens, UniProt P06401); assay: In Vitro PR Luciferase Reporter Assay (antagonist mode, CHO-K1-PR-MMTV-Luc reporter cells); assay type: cell-based; conditions: antagonist assay with 20 nM Progesterone, 18-24 hours, read-out: PR antagonism IC50
T1 construct: expressed in transfected cells; host or cells: CHO-K1
T1 sequence (P06401 1-933): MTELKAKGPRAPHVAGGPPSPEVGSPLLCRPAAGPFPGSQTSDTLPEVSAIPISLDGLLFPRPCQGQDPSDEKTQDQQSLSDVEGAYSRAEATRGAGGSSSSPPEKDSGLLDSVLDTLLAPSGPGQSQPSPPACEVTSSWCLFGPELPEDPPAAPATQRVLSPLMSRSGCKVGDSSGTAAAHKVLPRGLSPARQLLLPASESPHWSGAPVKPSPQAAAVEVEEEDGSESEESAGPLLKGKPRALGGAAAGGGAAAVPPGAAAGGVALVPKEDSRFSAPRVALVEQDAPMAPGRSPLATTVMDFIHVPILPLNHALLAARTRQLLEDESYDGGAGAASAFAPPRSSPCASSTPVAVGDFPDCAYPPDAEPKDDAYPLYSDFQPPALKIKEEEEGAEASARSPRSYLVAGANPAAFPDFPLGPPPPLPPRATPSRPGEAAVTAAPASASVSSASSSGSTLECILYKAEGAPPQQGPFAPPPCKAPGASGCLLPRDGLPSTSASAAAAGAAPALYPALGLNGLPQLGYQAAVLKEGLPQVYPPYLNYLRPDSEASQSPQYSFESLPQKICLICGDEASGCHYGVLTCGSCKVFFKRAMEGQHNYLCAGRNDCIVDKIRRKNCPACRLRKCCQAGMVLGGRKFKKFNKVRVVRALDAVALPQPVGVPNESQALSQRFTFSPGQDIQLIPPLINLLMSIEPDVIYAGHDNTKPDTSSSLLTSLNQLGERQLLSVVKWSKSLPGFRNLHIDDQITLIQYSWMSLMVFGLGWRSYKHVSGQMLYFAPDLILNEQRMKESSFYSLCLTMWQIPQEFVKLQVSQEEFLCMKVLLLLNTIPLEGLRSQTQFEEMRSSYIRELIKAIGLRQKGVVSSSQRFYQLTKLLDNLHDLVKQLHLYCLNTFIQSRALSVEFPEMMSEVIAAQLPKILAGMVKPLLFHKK
Excerpt: Example C: In Vitro PR Luciferase Reporter Assay
Cell Line: CHO-KI-PR-MMTV-Luc reporter cells
Culture Media: DMEM (with phenol red)+1000FBS
Assay Media: DMEM (without phenol red)+1000CSS
Culture CHO-Kl-PR-MMTV-Luc reporter cells in 15 cm plates in Culture Media at conditions less than 90% confluence.
Prepared 200×DMSO 1:8 serial dilutions of control and test compounds in 96-well non-sterile V bottom plate in DMSO, 8 serial dilutions for each compound.
Prepared 5× Assay Media diluted compound serial dilutions in 96-well non-sterile V bottom plate: Add 97.5 μL/well of Assay Media into 96-well then add 2.5 μl of 200× concentration of compounds and mix well.
Added compounds: 5 μl of assay media diluted compounds were added to appropriate wells and followed a quick spin (1000 rpm, 10 sec) to bring media and cells to the bottom of plate. The plates were covered with SealMate film to avoid evaporation and placed in 37° C. incubator for approximately 18-24 hours.
Read plates: Equilibrated appropriate amount of Promega One-Glo luciferase reagent to room temperature. Removed the plates from incubator and added 25 μL of One-Glo luciferase reagent/well by multiple channel pipette and read the plates with Tecan F500 luminometer within 3 minutes.
The ability of exemplary compounds disclosed herein to inhibit PR activity was quantified and the respective IC50 value was determined. Table 4 provides the cellular IC50 values of exemplary compounds disclosed herein.

CYP2C8 = biological target: T2, CYP2C8 (Homo sapiens, UniProt P10632); assay: CYP Inhibition Assay (CYP2C8, human liver microsomes, paclitaxel substrate); assay type: in vitro ADME; conditions: pH 7.4; pooled human liver microsomes 0.1 mg/mL, probe substrate paclitaxel
T2 construct: Pooled human microsomes were obtained from Sekisui XenoTech, KS; tissue Sekisui XenoTech, KS; host or cells: pooled human liver microsomes
T2 sequence (P10632 1-490): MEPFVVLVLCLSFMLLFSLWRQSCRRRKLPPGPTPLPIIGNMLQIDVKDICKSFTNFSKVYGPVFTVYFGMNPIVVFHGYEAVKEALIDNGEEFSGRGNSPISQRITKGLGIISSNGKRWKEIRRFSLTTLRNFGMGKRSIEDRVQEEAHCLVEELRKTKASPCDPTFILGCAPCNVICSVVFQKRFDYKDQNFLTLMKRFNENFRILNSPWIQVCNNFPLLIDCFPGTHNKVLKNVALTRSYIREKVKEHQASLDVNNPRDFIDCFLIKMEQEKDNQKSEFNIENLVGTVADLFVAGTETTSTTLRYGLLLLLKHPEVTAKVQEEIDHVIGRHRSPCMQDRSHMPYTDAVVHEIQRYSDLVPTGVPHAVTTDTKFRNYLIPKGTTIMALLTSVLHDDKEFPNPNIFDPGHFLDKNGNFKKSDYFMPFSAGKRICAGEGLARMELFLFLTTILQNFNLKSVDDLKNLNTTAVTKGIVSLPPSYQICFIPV
Outline: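 Pooled human liver microsomes (0.1 mg/mL) in 50 mM potassium phosphate pH 7.4 with compound, started with 1 mM NADPH, 5 min at 37° C, duplicate.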

| SMILES | IC50 (PR) [µM] | inhibition at 5 min (CYP2C8) [%] |
| --- | --- | --- |
| Cn1ccc(S(=O)(=O)N(C2CC(F)(F)C2)[C@H]2CCC3=Cc4c(cnn4-c4ccc(F)cc4)C[C@]3(C(=O)c3ncc(C(F)(F)F)s3)C2)n1 [Example 270, N-(3,3-difluorocyclobutyl)-N-((4aS,6S)-1-(4-fluorophenyl)-4a-(5-(trifluoromethyl)thiazole-2-carbonyl)-4,4a,5,6,7,8-hexahydro-1H-benzo[f]indazol-6-yl)-1-methyl-1H-pyrazole-3-sulfonamide] | 3.6 | ≤ 25 |
| Cn1ccc(S(=O)(=O)N([C@H]2CCC3=Cc4c(cnn4-c4ccc(F)cc4)C[C@]3(C(=O)c3ncc(C(F)(F)F)s3)C2)[C@H]2C[C@@](C)(O)C2)n1 [Example 277, N-((4aS,6S)-1-(4-fluorophenyl)-4a-(5-(trifluoromethyl)thiazole-2-carbonyl)-4,4a,5,6,7,8-hexahydro-1H-benzo[f]indazol-6-yl)-N-((1s,3R)-3-hydroxy-3-methylcyclobutyl)-1-methyl-1H-pyrazole-3-sulfonamide] | > 5 | ≤ 25 |
| Cn1cnc(S(=O)(=O)N(C2CC2)[C@H]2CCC3=Cc4c(cnn4-c4ccc(F)cc4)C[C@]3(C(=O)c3ncc(C(F)(F)F)s3)C2)n1 [Example 305, N-cyclopropyl-N-((4aS,6S)-1-(4-fluorophenyl)-4a-(5-(trifluoromethyl)thiazole-2-carbonyl)-4,4a,5,6,7,8-hexahydro-1H-benzo[f]indazol-6-yl)-1-methyl-1H-1,2,4-triazole-3-sulfonamide] | > 5 | 25 to 50 |
| Cn1cnc(S(=O)(=O)N(C2CC2)[C@H]2CCC3=Cc4c(cnn4-c4ccc(F)cc4)C[C@]3(C(=O)c3cc(C(F)(F)F)ccn3)C2)n1 [Example 306, N-cyclopropyl-N-((4aS,6S)-1-(4-fluorophenyl)-4a-(4-(trifluoromethyl)picolinoyl)-4,4a,5,6,7,8-hexahydro-1H-benzo[f]indazol-6-yl)-1-methyl-1H-1,2,4-triazole-3-sulfonamide] | > 5 | ≤ 25 |
